Drawing on ChEMBL document CHEMBL5120921, “Newly Discovered Peptides from the Coral Heliofungia actiniformis Show Structural and Functional Diversity” (J Nat Prod, 2022), this text covers viability and Activity for two molecules.

Common to all, as to format: toxicity
Series [1] is described as follows: (§1) Cytotoxicity against human 1BR.3.GN cells assessed as cell proliferation at 50 nM measured after 4 days by xCELLigence based analysis relative to control. As to conditions: 1BR.3.GN cells, time 4 day, read-out: Activity.
Series [2] deals with 1BR.3.GN. In words: Cytotoxicity against human 1BR.3.GN cells assessed as cell proliferation at 1250 nM measured after 4 days by xCELLigence based analysis. As to conditions: 96 h, 1.25 µM, time 4 day.
The test system of series [3] is 1BR.3.GN. The description is as §1. As to conditions: 1br.3.gn, 96 h, 0.05 µM, time 4 day.

Bridge positions count the residues as written; N and C are the ends. Peptide text beside a SMILES is read from it.

Turning to `CC[C@H](C)[C@H](NC(=O)[C@@H]1CSSC[C@@H]2NC(=O)[C@H](Cc3ccccc3)NC(=O)[C@H](CO)NC(=O)[C@H](CCCNC(=N)N)NC(=O)[C@@H]3CSSC[C@H](NC(=O)[C@H](CCCCN)NC(=O)[C@H](CCC(N)=O)NC(=O)[C@H](CC(=O)O)NC(=O)[C@@H]4CCCN4C2=O)C(=O)N[C@@H](CC(C)C)C(=O)N[C@@H](CCCCN)C(=O)N[C@@H](CC(=O)O)C(=O)N[C@@H](CSSC[C@H](N)C(=O)N[C@@H](C)C(=O)N2CCC[C@H]2C(=O)N[C@@H](CCC(=O)O)C(=O)N3)C(=O)NCC(=O)N1)C(=O)O` (H-CAPECRSFCPDQKCLKDCGCI-OH; disulfide 1-18, 5-14, 9-20), the viability at 96 h, 0.05 µM in series [1] is greater than 15%.

With “H-FNPVGVAFKGNNGKYLSRIHRSGIDYTEFAKDNTD-OH”, the Activity result in the series with 1BR.3.GN [2] and in the series on 1BR.3.GN [3] was “Non-Toxic” in each case.
